Values of other authors in PubChem BioAssay AID1259410 (Chemical Carcinogenesis Research Information System (CCRIS), 2018).

Tested on: rodent tumor promotion studies, tumor incidence
Assay: CCRIS tumor promotion studies

## NN=C(N)N
Carcinogen: AZOXYMETHANE, Doses [Carcinogen]: 2.5 MG/KG IN DISTILLED WATER 1/WK FOR 10 WK, Doses [Promoter]: 100 MG/KG IN 0.9%, NACL, 3/WK FOR 24 WK ADMINISTERED SIMULTANEOUSLY AND POST CARCINOGEN DOSES (STUDY DURATION: 52 WK), Route [Carcinogen]: SUBCUTANEOUS, Route [Promoter]: INTRAGASTRIC, Species: RAT, Strain/Sex: F344/MALE
  outcome: colon: tumor
Carcinogen: N-METHYL-N'-NITRO-N-NITROSOGUANIDINE, 70-25-7, Doses [Carcinogen]: 25 UG/ML IN DRINKING WATER FOR 25 WK, Doses [Promoter]: 0, 25 MG/KG BW 1/2 D FOR 25 WK BEGINNING POST CARCINOGEN TREATMENT (STUDY DURATION: 52 WK), Route [Carcinogen]: ORAL, Route [Promoter]: SUBCUTANEOUS, Species: RAT, Strain/Sex: WISTAR/MALE
  outcome: stomach: adenocarcinoma

## C=C1/C(=C\C=C2/CCC[C@]3(C)[C@@H]([C@H](C)CCC(F)(F)C(C)(C)O)CC[C@@H]23)C[C@H](O)C[C@H]1O
Carcinogen: 7,12-DIMETHYLBENZ[A]ANTHRACENE, 57-97-6, Doses [Carcinogen]: 50 NMOL IN 200 µL ACETONE 2/WK FOR 16 WK, Doses [Promoter]: 0, 0.05, 0.1 NMOL IN 200 µL ACETONE APPLIED 1 HR PRIOR TO CARCINOGEN DOSES 2/WK FOR 16 WK (STUDY DURATION: 16 WK), Doses [Promoter]: 0, 0.05, 0.1 NMOL IN 200 µL ACETONE APPLIED 1 HR PRIOR TO CARCINOGEN DOSES 2/WK FOR 16 WK (STUDY DURATION: 16 WK), Route [Carcinogen]: DERMAL, Route [Promoter]: DERMAL, Species: MOUSE, Strain/Sex: CD-1/FEMALE
  outcome: skin: tumors

## Cc1ccc(O)c(C)c1
Carcinogen: 7,12-DIMETHYLBENZ(A)ANTHRACENE, Doses [Carcinogen]: TOP, Route [Carcinogen]: DERMAL, Route [Promoter]: DERMAL, Species: MOUSE, Strain/Sex: FEMALE
  outcome: integumentary system (skin)

## CCCCCCCCCc1ccc(O)cc1
Carcinogen: 2',3-dimethyl-4-aminobiphenyl, 13394-86-0, Doses [Carcinogen]: 50 mg/kg every other wk for 10 injections from 7 wks of age, study duration 64 wks, Doses [Promoter]: 0, 25, 250, 2000 ppm in diet from 3 wks of age for 3 wks, Route [Carcinogen]: Subcutaneous, Route [Promoter]: Oral, Species: Rat, Strain/Sex: F344/Male (15-20/Group)
  outcome: prostate: adenocarcinoma, no effect

## O=P(O)(O)O
Carcinogen: N-BUTYL-N-(4-HYDROXYBUTYL)NITROSAMINE, 3817-11-6, Doses [Carcinogen]: 0.05% IN DRINKING WATER FOR 4 WK, Doses [Promoter]: 0, 1.4% IN DIET FOR 32 WK BEGINNING POST CARCINOGEN TREATMENT (STUDY DURATION: 36 WK), Route [Carcinogen]: ORAL, Route [Promoter]: ORAL, Species: RAT, Strain/Sex: F344/MALE
  outcome: urinary bladder: papilloma
Carcinogen: N-ETHYL-N-HYDROXYETHYLNITROSAMINE, 13147-25-6, Doses [Carcinogen]: 1000 PPM IN DIET FOR 2 WK, Doses [Promoter]: 0, 10% IN DIET OF UNILATERALLY NEPHRECTOMIZED RATS BEGINNING POST CARCINOGEN TREATMENT AND CONTINUING FOR 18 WK (STUDY D, Route [Carcinogen]: ORAL, Route [Promoter]: ORAL, Species: RAT, Strain/Sex: WISTAR/MALE
  outcome: kidney: renal cell tumor
Carcinogen: N-ETHYL-N-HYDROXYETHYLNITROSAMINE, 13147-25-6, Doses [Carcinogen]: 1000 PPM IN DIET FOR 2 WK, Doses [Promoter]: 0, 50000 PPM IN DIET FOR 18 WK ADMINISTERED TO UNILATERALLY NEPHRECTOMIZED RATS (STUDY DURATION: 20 WK), Route [Carcinogen]: ORAL, Route [Promoter]: ORAL, Species: RAT, Strain/Sex: WISTAR/MALE
  outcome: kidney: renal cell tumor

## Oc1ccccc1O
Carcinogen: DIETHYLNITROSAMINE, 55-18-5, N-METHYL-N-NITROSOUREA, 684-93-5, 1,2-DIMETHYLHYDRAZINE, 540-73-8, N-BUTYL-N-(4-HYDRO, Carcinogen: DIETHYLNITROSAMINE, 55-18-5, N-METHYL-N-NITROSOUREA, 684-93-5, 1,2-DIMETHYLHYDRAZINE, 540-73-8, N-BUTYL-N-(4-HYDRO, Doses [Carcinogen]: 100 MG/KG BW DEN ONCE THEN 20 MG/KG BW MNU 1/D FOR 4 D FOLLOWED BY 40 MG/KG BW DMH 1/D FOR 4 D, 0.05% BHBN IN DRINKING W, Doses [Promoter]: 0, 0.8% IN DIET FOR 24 WK BEGINNING 3 D POST CARCINOGEN TREATMENT (STUDY DURATION: 28 WK), Route [Carcinogen]: INTRAPERITONEAL, INTRAPERITONEAL, SUBCUTANEOUS, ORAL, Route [Carcinogen]: INTRAPERITONEAL, INTRAPERITONEAL, SUBCUTANEOUS, ORAL, Route [Promoter]: ORAL, Species: RAT, Strain/Sex: F344/MALE
  outcome: forestomach: papilloma, squamous cell carcinoma; glandular stomach: adenoma, ade
Carcinogen: DIETHYLNITROSAMINE, 55-18-5, N-METHYLNITROSOUREA, 684-93-5, 1,2-DIMETHYLHYDRAZINE, 540-73-8, N-BUTYL-N-(4-HYDROXYBUTYL)N, Carcinogen: DIETHYLNITROSAMINE, 55-18-5, N-METHYLNITROSOUREA, 684-93-5, 1,2-DIMETHYLHYDRAZINE, 540-73-8, N-BUTYL-N-(4-HYDROXYBUTYL)N, Doses [Carcinogen]: 100 MG/KG BW DEN ONCE FOLLOWED BY 20 MG/KG BW MNU 2/WK FOR 2 WK THEN 40 MG/KG BW DMH 2/WK FOR THE NEXT 2WK, 0.05% BBN IN, Doses [Promoter]: 0, 0.16% IN DIET FOR 24 WK BEGINNING POST CARCINOGEN TREATMENT (STUDY DURATION: 28 WK), Route [Carcinogen]: INTRAPERITONEAL, INTRAPERITONEAL, SUBCUTANEOUS, ORAL, Route [Carcinogen]: INTRAPERITONEAL, INTRAPERITONEAL, SUBCUTANEOUS, ORAL, Route [Promoter]: ORAL, Species: RAT, Strain/Sex: F344/MALE
  outcome: forestomach: papilloma
Carcinogen: DIETHYLNITROSAMINE, 55-18-5, N-METHYLNITROSOUREA, 684-93-5, DIHYDROXY-DI-N- PROPYLNITROSAMINE, 53609-64-6, Carcinogen: DIETHYLNITROSAMINE, 55-18-5, N-METHYLNITROSOUREA, 684-93-5, DIHYDROXY-DI-N- PROPYLNITROSAMINE, 53609-64-6, Doses [Carcinogen]: 100 MG/KG/BW DEN ONCE AT BEGINNING OF STUDY THEN 20 MG/KG/BW MNU ONCE ON D 2, 5, 8 AND 11 OF STUDY FOLLOWED BY 0.1% DHPN, Doses [Promoter]: 0, 0.8% IN DIET BEGINNING POST CARCINOGEN TREATMENT AND CONTINUING FOR DURATION OF STUDY (STUDY DURATION: 20 WK), Route [Carcinogen]: INTRAPERITONEAL, INTRAPERITONEAL, ORAL, Route [Carcinogen]: INTRAPERITONEAL, INTRAPERITONEAL, ORAL, Route [Promoter]: ORAL, Species: RAT, Strain/Sex: F344/MALE
  outcome: forestomach: squamous cell papilloma
Carcinogen: METHYL-N-AMYLNITROSAMINE, 13256-07-0, Doses [Carcinogen]: 25 MG/KG AT WK 0, WK 1, AND WK 2 (TOTAL 3 TREATMENTS), Doses [Promoter]: 0, 0.8% IN DIET FOR 49 WK BEGINNING 1 WK POST CARCINOGEN DOSE (STUDY DURATION: 5 WK), Route [Carcinogen]: INTRAPERITONEAL, Route [Promoter]: ORAL, Species: RAT, Strain/Sex: F344/MALE
  outcome: tongue: papilloma; esophagus: carcinoma
Carcinogen: N-METHYL-N'-NITRO-N-NITROSOGUANIDINE, 70-25-7, Doses [Carcinogen]: 150 MG/KG ONCE, Doses [Promoter]: 0, 0.8% IN DIET BEGINNING 1 WK POST CARCINOGEN DOSE (STUDY DURATION: 52 WK), Route [Carcinogen]: GAVAGE, Route [Promoter]: ORAL, Species: RAT, Strain/Sex: F344
  outcome: forestomach: carcinoma; glandular stomach: adenocarcinoma
Carcinogen: N-METHYL-N-NITROSOUREA, 684-93-5, Doses [Carcinogen]: 120 PPM IN DRINKING WATER FOR 1-WK PERIODS EVERY OTHER WEEK FOR A TOTAL OF 3 WK OF TREATMENT, Doses [Promoter]: 0, 0.05, 0.2, 0.8% IN DIET FOR 30 WK BEGINNING POST CARCINOGEN TREATMENT (STUDY DURATION: 35 WK), Doses [Promoter]: 0, 0.05, 0.2, 0.8% IN DIET FOR 30 WK BEGINNING POST CARCINOGEN TREATMENT (STUDY DURATION: 35 WK), Route [Carcinogen]: ORAL, Route [Promoter]: ORAL, Species: MOUSE, Strain/Sex: BALB/MALE
  outcome: glandular stomach: adenoma
Carcinogen: N-METHYL-N-NITROSOUREA, 684-93-5, Doses [Carcinogen]: 120 PPM IN DRINKING WATER FOR 1-WK PERIODS EVERY OTHER WK FOR A TOTAL OF 3 WK OF TREATMENT, Doses [Promoter]: 0, 0.8% IN DIET FOR 30 WK BEGINNING POST CARCINOGEN TREATMENT (STUDY DURATION: 35 WK), Route [Carcinogen]: ORAL, Route [Promoter]: ORAL, Species: MOUSE, Strain/Sex: BALB/MALE
  outcome: glandular stomach: adenocarcinoma

## C=CCc1ccc(O)c(OC)c1
Carcinogen: 1,2-DIMETHYLHYDRAZINE, 57-14-7 1-METHYL-1-NITROSOUREA, 684-93-5, Carcinogen: 1,2-DIMETHYLHYDRAZINE, 57-14-7 1-METHYL-1-NITROSOUREA, 684-93-5, Doses [Carcinogen]: 40 MG/KG 1,2-DIMETHYLHYDRAZINE IN 0.9% NACL SUBCUTANEOUS 3/WK IN FIRST WK FOLLOWED BY 20 MG 1-METHYL-1-NITROSOUREA/5 ML, Doses [Promoter]: 0, 0.8% IN DIET FOR 48 WK ADMINISTERED 1 WK POST CARCINOGEN DOSE (STUDY DURATION: 52 WK), Route [Carcinogen]: SUBCUTANEOUS, INTRAPERITONEAL, Route [Promoter]: ORAL, Species: RAT, Strain/Sex: F344/MALE
  outcome: forestomach: papilloma

## CCCCCCCCC1=C(CCCCCCCC(=O)OC)C1
Doses [Carcinogen]: DIET, Doses [Promoter]: DIET, Route [Carcinogen]: ORAL, Route [Promoter]: ORAL, Species: FISH, Strain/Sex: RAINBOW TROUT/MALE,FEMALE
  outcome: liver

## C[C@H](CCC(=O)O)[C@H]1CC[C@H]2[C@@H]3[C@H](O)C[C@@H]4C[C@H](O)CC[C@]4(C)[C@H]3CC[C@]12C
Carcinogen: 3-METHYLCHOLANTHRENE, 56-49-5, Doses [Carcinogen]: 3 MG IN BEESWAX PELLET, Doses [Promoter]: 0, 3 MG IN BEESWAX PELLET (STUDY DURATION: 5 MO), Route [Carcinogen]: IMPLANT, Route [Promoter]: IMPLANT, Species: HAMSTER
  outcome: gallbladder: tumor
Doses [Carcinogen]: IR, Route [Carcinogen]: RECTAL, Route [Promoter]: RECTAL, Species: RAT, Strain/Sex: FEMALE
  outcome: colon
